≈ marks a conversion by molar mass, not a printed value. Read-outs that look alike come from different tables or passages of the source.
Experiments:
[1] = test system: VISA clinical isolates of MRSA (VI-MRSA) and of MSSA (VI-MSSA); assay: microbe, parasite or virus in culture; assay type: cell-based, Staphylococcus aureus
Method in brief: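 Strains were grown overnight at 37° C in TSB, adjusted in CAMHB to 0.3 absorbance at 578 nm and diluted 500-fold before equal-volume addition to compound dilutions.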

[2] = test system: VRSA clinical isolates; assay: microbe, parasite or virus in culture; assay type: cell-based; conditions: Staphylococcus aureus
Method: (§1) Each of the bacterial strains listed in Table 1-1 was shake-cultured at 37° C. overnight in 4 mL of a medium (Tryptical Soy Broth: TSB, product of Becton Dickinson and Company). FDA209P was used as a control.
(§2) After completion of culturing, the resultant culture was suspended in a cation-adjusted Mueller Hinton Broth (CAMHB, product of Becton Dickinson and Company). Then, the obtained bacterial culture was adjusted in absorbance with the CAMHB so that the absorbance at 578 nm of the bacterial culture was adjusted to 0.3 measured by an absorption spectrometer. In addition, the resultant bacterial culture was 500-fold diluted with the CAMHB.
(§3) Each of the 500-fold diluted, pre-cultured bacterial cultures was added at 50 μL/well to the CAMHB containing the quinolones and the nybomycins at various concentrations (50 μL/well), followed by statically culturing at 37° C. overnight.
(§4) After completion of culturing, the growth of the bacteria was visually determined based on turbidity to measure MIC in each bacterial strain.
Here, the glycopeptides used were VCM and TEIC. The β-lactam used was OXA.

[3] = test system: methicillin-susceptible S. aureus (MSSA), MRSA and mutants thereof; assay: MIC measurement, Test Example 3 (MSSA, MRSA and sequential gyrA/grlA quinolone-resistant mutants); assay type: cell-based, Staphylococcus aureus; conditions: Staphylococcus aureus
Source text: That is, the first-step quinolone-resistant mutants are bacterial strains which are the same as their parent strains (clinical isolates) except that the genes shown in the corresponding parts of Table 1-1 are mutated. The second-step quinolone-resistant mutants are bacterial strains which are the same as the first-step quinolone-resistant mutants except that the genes shown in the corresponding parts of Table 1-1 are further mutated. The third-step quinolone-resistant mutants are bacterial strains which are the same as the second-step quinolone-resistant mutants except that the genes shown in the corresponding parts of Table 1-1 are further mutated. The fourth-step quinolone-resistant strain is a bacterial strain which is the same as the third-step quinolone-resistant mutant bacteria except that the gene shown in the corresponding part of Table 1-1 is further mutated.
as §1, §2, §3, §4

[4] = test system: Enterococcus faecalis; assay: MIC measurement, Test Example 6 (enterococcus); assay type: cell-based; conditions: Enterococcus faecalis, read-out: MIC
Method: as §1, §2, §3, §4
Quinolones and nybomycins were evaluated for antibacterial activity against Enterococcus faecalis shown in Table 6, wherein the other strains than NCTC12201 and NCTC12203 were subdivided from Shionogi & Co., Ltd (note that these strains are available also from the Department of Bacteriology, Juntendo University). The NCTC strains are both vancomycin-resistant E. faecalis and available from the National Collection of Type Cultures (NCTC).

CCn1cc(C(=O)O)c(=O)c2cc(F)c(N3CCNCC3)cc21 [NFLX, norfloxacin]
MIC ([1]; Staphylococcus aureus, 99/3700-W, VI-MRSA, The United Kingdom): 64 µg/mL (≈ 200 µM) | MIC ([1]; Staphylococcus aureus, 99/3759-V, VI-MRSA, The United Kingdom): 128 µg/mL (≈ 401 µM) | MIC ([1]; Staphylococcus aureus, 28160, VI-MRSA, South African Republic): 64 µg/mL (≈ 200 µM) | MIC ([1]; Staphylococcus aureus, 98141, VI-MRSA, France): 64 µg/mL (≈ 200 µM) | MIC ([1]; Staphylococcus aureus, A7 (JCSC4842), VI-MRSA, Taiwan): 32 µg/mL (≈ 100 µM) | MIC ([1]; Staphylococcus aureus, AMC11094, VI-MRSA, Korea): 128 µg/mL (≈ 401 µM) | MIC ([1]; Staphylococcus aureus, B7 (JCSC4852), VI-MRSA, Taiwan): 64 µg/mL (≈ 200 µM) | MIC ([1]; Staphylococcus aureus, BR1, VI-MRSA, Brazil): 128 µg/mL (≈ 401 µM) | MIC ([1]; Staphylococcus aureus, BR2, VI-MRSA, Brazil): 64 µg/mL (≈ 200 µM) | MIC ([1]; Staphylococcus aureus, BR3, VI-MRSA, Brazil): 64 µg/mL (≈ 200 µM) | MIC ([1]; Staphylococcus aureus, BR4, VI-MRSA, Brazil): 128 µg/mL (≈ 401 µM) | MIC ([1]; Staphylococcus aureus, BR5, VI-MRSA, Brazil): 128 µg/mL (≈ 401 µM) | MIC ([1]; Staphylococcus aureus, HIP06297, VI-MRSA, America): 64 µg/mL (≈ 200 µM) | MIC ([1]; Staphylococcus aureus, HIP06854, VI-MRSA, America): 128 µg/mL (≈ 401 µM) | MIC ([1]; Staphylococcus aureus, HIP07920, VI-MRSA, America): 16 µg/mL (≈ 50.1 µM) | MIC ([1]; Staphylococcus aureus, HIP07930, VI-MRSA, America): 128 µg/mL (≈ 401 µM) | MIC ([1]; Staphylococcus aureus, HIP08926, VI-MRSA, America): 64 µg/mL (≈ 200 µM) | MIC ([1]; Staphylococcus aureus, HIP09143, VI-MRSA, America): > 128 µg/mL | MIC ([1]; Staphylococcus aureus, HIP09313, VI-MRSA, America): 32 µg/mL (≈ 100 µM) | MIC ([1]; Staphylococcus aureus, HIP09433, VI-MRSA, America): > 128 µg/mL | MIC ([1]; Staphylococcus aureus, HIP09662, VI-MRSA, America): 64 µg/mL (≈ 200 µM) | MIC ([1]; Staphylococcus aureus, HIP09735, VI-MRSA, America): > 128 µg/mL | MIC ([1]; Staphylococcus aureus, HIP09737, VI-MSSA, America): > 128 µg/mL | MIC ([1]; Staphylococcus aureus, HIP09740, VI-MRSA, America): > 128 µg/mL | MIC ([1]; Staphylococcus aureus, HIP10267, VI-MRSA, America): > 128 µg/mL | MIC ([1]; Staphylococcus aureus, HIP10540, VI-MRSA, America): > 128 µg/mL | MIC ([1]; Staphylococcus aureus, HIP12864, VI-MRSA, America): 64 µg/mL (≈ 200 µM) | MIC ([1]; Staphylococcus aureus, HIP13036, VI-MRSA, America): 16 µg/mL (≈ 50.1 µM) | MIC ([1]; Staphylococcus aureus, HIP13057, VI-MRSA, America): 128 µg/mL (≈ 401 µM) | MIC ([1]; Staphylococcus aureus, IL (HIP7737), VI-MRSA, America): > 128 µg/mL | MIC ([1]; Staphylococcus aureus, JCSC7193, VI-MRSA, Thailand): 64 µg/mL (≈ 200 µM) | MIC ([1]; Staphylococcus aureus, JCSC7195, VI-MRSA, Thailand): 128 µg/mL (≈ 401 µM) | MIC ([1]; Staphylococcus aureus, JCSC7203, VI-MRSA, Thailand): 64 µg/mL (≈ 200 µM) | MIC ([1]; Staphylococcus aureus, LIM2, VI-MRSA, France): 128 µg/mL (≈ 401 µM) | MIC ([1]; Staphylococcus aureus, LY-1999-01, VI-MSSA, Oman): 16 µg/mL (≈ 50.1 µM) | MIC ([1]; Staphylococcus aureus, LY-1999-03, VI-MRSA, Oman): 64 µg/mL (≈ 200 µM) | MIC ([1]; Staphylococcus aureus, MI (HIP5827), VI-MRSA, America): 128 µg/mL (≈ 401 µM) | MIC ([1]; Staphylococcus aureus, MRSA / MSSA / NRS 76 / VISA, NRS76, VI-MSSA, America): 128 µg/mL (≈ 401 µM) | MIC ([1]; Staphylococcus aureus, MRSA / MSSA / NRS 79 / VISA, NRS79, VI-MRSA, America): > 128 µg/mL | MIC ([1]; Staphylococcus aureus, MRSA / MSSA / NRS 118 / VISA, NRS118, VI-MRSA, America): 128 µg/mL (≈ 401 µM) | MIC ([1]; Staphylococcus aureus, MRSA / MSSA / NRS 126 / VISA, NRS126, VI-MRSA, America): 64 µg/mL (≈ 200 µM) | MIC ([1]; Staphylococcus aureus, Mu3, VI-MRSA, Japan): 128 µg/mL (≈ 401 µM) | MIC ([1]; Staphylococcus aureus, Mu50, VI-MRSA, Japan): 128 µg/mL (≈ 401 µM) | MIC ([1]; Staphylococcus aureus, NJ (HIP5836), VI-MRSA, America): 128 µg/mL (≈ 401 µM) | MIC ([1]; Staphylococcus aureus, P1V44, VI-MSSA, Belgium): 4 µg/mL (≈ 12.5 µM) | MIC ([1]; Staphylococcus aureus, PC, VI-MRSA, America): 64 µg/mL (≈ 200 µM) | MIC ([1]; Staphylococcus aureus, SA MER-S6, VI-MSSA, France): 2 µg/mL (≈ 6.26 µM) | MIC ([1]; Staphylococcus aureus, SA MER-S12, VI-MSSA, France): 2 µg/mL (≈ 6.26 µM) | MIC ([1]; Staphylococcus aureus, SA MER-S20, VI-MSSA, France): 0.5 µg/mL (≈ 1.57 µM) | MIC ([2]; VRS1, VRSA, Michigan): > 128 µg/mL | MIC ([2]; VRS2, VRSA, Pennsylvania): > 128 µg/mL | MIC ([2]; VRS3, VRSA, New York): 128 µg/mL (≈ 401 µM) | MIC ([2]; VRS4, VRSA, New York): 128 µg/mL (≈ 401 µM) | MIC ([2]; VRS5, VRSA, Michigan): > 128 µg/mL | MIC ([2]; VRS6, VRSA, Michigan): > 128 µg/mL | MIC ([2]; VRS7, VRSA, Michigan): > 128 µg/mL | MIC ([3]; MR5867-2, second-step mutant, further gyrA S84L): 64 µg/mL (≈ 200 µM) | MIC ([3]; MR5867-3, third-step mutant, further grlA S80F): > 128 µg/mL | MIC ([3]; MR5867-4, fourth-step mutant, further gyrA E88K): > 128 µg/mL | MIC ([4]; E. faecalis 36-15672, quinolone-susceptible enterococci): 4 µg/mL (≈ 12.5 µM) | MIC ([4]; E. faecalis 36-15673, quinolone-susceptible enterococci): 4 µg/mL (≈ 12.5 µM) | MIC ([4]; E. faecalis 36-15678, quinolone-susceptible enterococci): 4 µg/mL (≈ 12.5 µM) | MIC ([4]; E. faecalis 36-15686, quinolone-resistant enterococci): > 128 µg/mL | MIC ([4]; E. faecalis 36-15688, quinolone-susceptible enterococci): 2 µg/mL (≈ 6.26 µM) | MIC ([4]; E. faecalis 36-15694, quinolone-resistant enterococci): > 128 µg/mL | MIC ([4]; E. faecalis 36-15696, quinolone-susceptible enterococci): 4 µg/mL (≈ 12.5 µM) | MIC ([4]; E. faecalis 36-15703, quinolone-resistant enterococci): 64 µg/mL (≈ 200 µM) | MIC ([4]; E. faecalis 36-15716, quinolone-resistant enterococci): > 128 µg/mL | MIC ([4]; E. faecalis 36-15718, quinolone-susceptible enterococci): 4 µg/mL (≈ 12.5 µM) | MIC ([4]; E. faecalis 36-15720, quinolone-susceptible enterococci): 8 µg/mL (≈ 25.1 µM) | MIC ([4]; E. faecalis 36-15722, quinolone-resistant enterococci): 128 µg/mL (≈ 401 µM) | MIC ([4]; E. faecalis 36-15726, quinolone-resistant enterococci): 128 µg/mL (≈ 401 µM) | MIC ([4]; E. faecalis 36-15730, quinolone-susceptible enterococci): 8 µg/mL (≈ 25.1 µM) | MIC ([4]; E. faecalis 36-15736, quinolone-susceptible enterococci): 4 µg/mL (≈ 12.5 µM) | MIC ([4]; E. faecalis 36-15741, quinolone-susceptible enterococci): 4 µg/mL (≈ 12.5 µM) | MIC ([4]; NCTC 12201 / VRE, E. faecalis NCTC12201, vancomycin-resistant (VRE), quinolone-susceptible enterococci): 2 µg/mL (≈ 6.26 µM) | MIC ([4]; NCTC 12203 / VRE, E. faecalis NCTC12203, vancomycin-resistant (VRE), quinolone-susceptible enterococci): 2 µg/mL (≈ 6.26 µM)

From patent publication US20120258980A1, “Antibacterial Agent for Drug-Resistant Bacteria, Method for Screening for Same, and Use of Same” (priority 2009, published 2012)
